Measurements from patent US11104690B2, “Indazole derivatives useful as inhibitors of diacylglyceride O-acyltransferase 2” (Merck Sharp & Dohme Corp., priority 2016, dated 2021).

Molecular target: Human DGAT2 (Homo sapiens (Human), UniProt Q96PD7)
Experiment: DGAT2 Enzymatic Activity Assay (triolein formation, LC/MS/MS)
Format: biochemical
Details: hDGAT2 Sf-9 membrane prep; 25 μM diolein, 10 μM oleoyl-CoA; room temperature
In short: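 Triolein product, measured by LC/MS/MS as a ratio to internal standard, gave % inhibition and 4-parameter IC50. Reaction: 25 μM diolein, 10 μM oleoyl-CoA, 10 ng/μL hDGAT2 Sf-9 membrane, 100 mM Tris.Cl pH 7.0, 20 mM MgCl2, 5% ethanol, room temperature.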

Chain of Human DGAT2 (Q96PD7 whole entry): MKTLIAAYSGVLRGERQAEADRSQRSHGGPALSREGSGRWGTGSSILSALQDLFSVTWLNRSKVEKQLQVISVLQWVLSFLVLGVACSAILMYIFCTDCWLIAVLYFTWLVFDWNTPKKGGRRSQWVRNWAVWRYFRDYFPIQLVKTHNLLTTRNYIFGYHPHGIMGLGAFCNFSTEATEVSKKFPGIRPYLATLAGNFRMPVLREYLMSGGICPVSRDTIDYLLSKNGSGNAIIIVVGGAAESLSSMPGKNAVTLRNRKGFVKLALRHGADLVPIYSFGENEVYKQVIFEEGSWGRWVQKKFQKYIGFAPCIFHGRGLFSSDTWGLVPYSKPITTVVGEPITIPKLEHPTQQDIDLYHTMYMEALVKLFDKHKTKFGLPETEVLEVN

SMILES: CC1(NC(=O)c2ccc3c(-c4cc(C(N)=O)ccc4Cl)nn(-c4ccc(F)cc4)c3c2)CCS(=O)(=O)C1 (single isomer, unassigned) [Example 121-A, 3-(5-carbamoyl-2-chlorophenyl)-1-(4-fluorophenyl)-N-(3-methyl-1,1-dioxidotetrahydrothiophen-3-yl)-1H-indazole-6-carboxamide]
- IC50: 132 nM

SMILES: CC1(NC(=O)c2ccc3c(-c4cc(C#N)ccc4Cl)nn(-c4ccc(F)cc4)c3c2)CCS(=O)(=O)C1 (single isomer, unassigned) [Example 119-B, 3-(2-chloro-5-cyanophenyl)-1-(4-fluorophenyl)-N-(3-methyl-1,1-dioxidotetrahydrothiophen-3-yl)-1H-indazole-6-carboxamide]
- IC50: 2.5 nM

SMILES: CC1(NC(=O)c2ccc3c(-c4cncc(C#N)c4)nn(-c4ccc(F)cc4)c3c2)CCS(=O)(=O)C1 (single isomer, unassigned) [Example 146-A, 3-(5-cyanopyridin-3-yl)-1-(4-fluorophenyl)-N-(3-methyl-1,1-dioxidotetrahydrothiophen-3-yl)-1H-indazole-6-carboxamide]
- IC50: 63 nM

SMILES: CC1(NC(=O)c2ccc3c(-c4cccc(C#N)c4)nn(-c4ccc(F)cc4)c3c2)CCS(=O)(=O)C1 (stereo not drawn) [Example 117, 3-(3-cyanophenyl)-1-(4-fluorophenyl)-N-(3-methyl-1,1-dioxidotetrahydrothiophen-3-yl)-1H-indazole-6-carboxamide]
- IC50: 7 nM

SMILES: CC(C)(C)NC(=O)c1ccc2c(-c3ccccc3Cl)nn(-c3ccc(F)cc3)c2c1 [Example 15, N-tert-butyl-3-(2-chlorophenyl)-1-(4-fluorophenyl)-1H-indazole-6-carboxamide]
- IC50: 77 nM

SMILES: CN1CCC(NC(=O)c2ccc3c(-c4ccccc4Cl)nn(-c4ccc(F)cc4)c3c2)C1=O (racemic) [Example 6, 3-(2-chlorophenyl)-1-(4-fluorophenyl)-N-(1-methyl-2-oxopyrrolidin-3-yl)-1H-indazole-6-carboxamide]
- IC50: 686 nM

SMILES: O=C(NCc1ccncc1)c1ccc2c(-c3ccccc3Cl)nn(-c3ccc(F)cc3)c2c1 [Example 33, 3-(2-chlorophenyl)-1-(4-fluorophenyl)-N-(pyridin-4-ylmethyl)-1H-indazole-6-carboxamide]
- IC50: 654 nM

SMILES: CC[C@H](C)[C@@H](CO)NC(=O)c1ccc2c(-c3ccccc3Cl)nn(-c3ccc(F)cc3)c2c1 [Example 103, 3-(2-chlorophenyl)-1-(4-fluorophenyl)-N-[(1S,2S)-1-(hydroxymethyl)-2-methylbutyl]-1H-indazole-6-carboxamide]
- IC50: 31 nM

SMILES: O=C(NCCS(=O)(=O)Nc1ccccn1)c1ccc2c(-c3ccccc3Cl)nn(-c3ccc(F)cc3)c2c1 [Example 55, 3-(2-chlorophenyl)-1-(4-fluorophenyl)-N-[2-(pyridin-2-ylsulfamoyl)ethyl]-1H-indazole-6-carboxamide]
- IC50: 383 nM

SMILES: O=C(NC1CCS(=O)(=O)C1)c1ccc2c(-c3ccccc3Cl)nn(Cc3ccc(F)cc3)c2c1 (stereo not drawn) [Example 170, 3-(2-chlorophenyl)-N-(1,1-dioxidotetrahydrothiophen-3-yl)-1-(4-fluorobenzyl)-1H-indazole-6-carboxamide]
- IC50: 179 nM

SMILES: O=C(NC1CC[S+]([O-])C1)c1ccc2c(-c3ccccc3Cl)nn(-c3ccc(F)cc3)c2c1 (single isomer, unassigned) [Example 58-A, 3-(2-chlorophenyl)-1-(4-fluorophenyl)-N-(1-oxidotetrahydrothiophen-3-yl)-1H-indazole-6-carboxamide]
- IC50: 668 nM

SMILES: O=C(NC1(c2ccc(Br)cc2)CC(O)C1)c1ccc2c(-c3ccccc3Cl)nn(-c3ccc(F)cc3)c2c1 (stereo not drawn) [Example 108, N-[1-(4-bromophenyl)-3-hydroxycyclobutyl]-3-(2-chlorophenyl)-1-(4-fluorophenyl)-1H-indazole-6-carboxamide]
- IC50: 393 nM

SMILES: CC1(NC(=O)c2ccc3c(-c4ccccc4Cl)nn(-c4ccc(Cl)cn4)c3c2)CCS(=O)(=O)C1 (single isomer, unassigned) [Example 171-A, 3-(2-Chlorophenyl)-1-(5-chloropyridin-2-yl)-N-(3-methyl-1,1-dioxidotetrahydrothiophen-3-yl)-1H-indazole-6-carboxamide]
- IC50: 15 nM

SMILES: O=C(NCCS(=O)(=O)Nc1ccccc1)c1ccc2c(-c3ccccc3Cl)nn(-c3ccc(F)cc3)c2c1 [Example 56, 3-(2-chlorophenyl)-1-(4-fluorophenyl)-N-[2-(phenylsulfamoyl)ethyl]-1H-indazole-6-carboxamide]
- IC50: 22 nM

SMILES: CC1(NC(=O)c2ccc3c(-c4ccccc4Cl)nn(-c4nnc(C5CC5)s4)c3c2)CCS(=O)(=O)C1 (racemic) [Example 190, 3-(2-chlorophenyl)-1-(5-cyclopropyl-1,3,4-thiadiazol-2-yl)-N-(3-methyl-1,1-dioxidotetrahydrothiophen-3-yl)-1H-indazole-6-carboxamide]
- IC50: 45 nM

SMILES: CC1(NC(=O)c2ccc3c(-c4ccccc4Cl)nn(-c4ccccn4)c3c2)CCS(=O)(=O)C1 (single isomer, unassigned) [Example 174-A, 3-(2-chlorophenyl)-N-(3-methyl-1,1-dioxidotetrahydrothiophen-3-yl)-1-pyridin-2-yl-1H-indazole-6-carboxamide]
- IC50: 71 nM

SMILES: O=C(NCc1cn2cccnc2n1)c1ccc2c(-c3ccccc3Cl)nn(-c3ccc(F)cc3)c2c1 [Example 35, 3-(2-chlorophenyl)-1-(4-fluorophenyl)-N-(imidazo[1,2-a]pyrimidin-2-ylmethyl)-1H-indazole-6-carboxamide]
- IC50: 415 nM

SMILES: O=C(NC1CCS(=O)(=O)C1)c1ccc2c(-c3cccc(OC(F)F)c3)nn(-c3ccc(F)cc3)c2c1 (single isomer, unassigned) [Example 136-A, 3-[3-(difluoromethoxy)phenyl]-N-(1,1-dioxidotetrahydrothiophen-3-yl)-1-(4-fluorophenyl)-1H-indazole-6-carboxamide]
- IC50: 1.4 nM

SMILES: CCOC(=O)c1coc(-n2nc(-c3ccccc3Cl)c3ccc(C(=O)NC4(C)CCS(=O)(=O)C4)cc32)n1 (racemic) [Example 188, ethyl 2-{3-(2-chlorophenyl)-6-[(3-methyl-1,1-dioxidotetrahydrothiophen-3-yl)carbamoyl]-1H-indazol-1-yl}-1,3-oxazole-4-carboxylate]
- IC50: 95 nM

SMILES: CC1(NC(=O)c2ccc3c(-c4cc(C#N)ccc4F)nn(-c4ccc(F)cc4)c3c2)CCS(=O)(=O)C1 (single isomer, unassigned) [Example 151-A, 3-(5-cyano-2-fluorophenyl)-1-(4-fluorophenyl)-N-(3-methyl-1,1-dioxidotetrahydrothiophen-3-yl)-1H-indazole-6-carboxamide]
- IC50: 4.5 nM

SMILES: NS(=O)(=O)CCNC(=O)c1ccc2c(-c3ccccc3Cl)nn(-c3ccc(F)cc3)c2c1 [Example 20, 3-(2-chlorophenyl)-1-(4-fluorophenyl)-N-(2-sulfamoylethyl)-1H-indazole-6-carboxamide]
- IC50: 148 nM

SMILES: N#Cc1ccc(Cl)c(-c2nn(-c3ccc(F)cc3)c3cc(C(=O)NC4CCS(=O)(=O)C4)ccc23)c1 (single isomer, unassigned) [Example 120-A, 3-(2-chloro-5-cyanophenyl)-N-(1,1-dioxidotetrahydrothiophen-3-yl)-1-(4-fluorophenyl)-1H-indazole-6-carboxamide]
- IC50: 4.2 nM

SMILES: Cc1cccc(-c2nn(-c3ccc(F)cc3)c3cc(C(=O)NC4(C)CCS(=O)(=O)C4)ccc23)c1 (single isomer, unassigned) [Example 156-A, 1-(4-fluorophenyl)-N-(3-methyl-1,1-dioxidotetrahydrothiophen-3-yl)-3-(3-methylphenyl)-1H-indazole-6-carboxamide]
- IC50: 11 nM

SMILES: CC1(NC(=O)c2ccc3c(-c4cccc(C(N)=O)c4)nn(-c4ccc(F)cc4)c3c2)CCS(=O)(=O)C1 (racemic) [Example 149, 3-(3-carbamoylphenyl)-1-(4-fluorophenyl)-N-(3-methyl-1,1-dioxidotetrahydrothiophen-3-yl)-1H-indazole-6-carboxamide]
- IC50: 249 nM

SMILES: CC1(NC(=O)c2ccc3c(-c4ccccc4Cl)nn(-c4ccc(F)cc4)c3c2)CCS(=O)(=O)C1 (single isomer, unassigned) [Example 1-B, 3-(2-chlorophenyl)-1-(4-fluorophenyl)-N-(3-methyl-1,1-dioxidotetrahydrothiophen-3-yl)-1H-indazole-6-carboxamide]
- IC50: 8.3 nM

SMILES: O=C(NCCS(=O)(=O)NC1CCCCC1)c1ccc2c(-c3ccccc3Cl)nn(-c3ccc(F)cc3)c2c1 [Example 53, 3-(2-chlorophenyl)-N-[2-(cyclohexylsulfamoyl)ethyl]-1-(4-fluorophenyl)-1H-indazole-6-carboxamide]
- IC50: 32 nM

SMILES: COC(=O)c1cccc(-n2nc(-c3ccccc3Cl)c3ccc(C(=O)NC4(C)CCS(=O)(=O)C4)cc32)c1 (racemic) [Example 180, methyl 3-{3-(2-chlorophenyl)-6-[(3-methyl-1,1-dioxidotetrahydrodioxidotetra-hydrodioxidotetrahydrodioxido-tetrahydro-thiophen-3-yl)carbamoyl]-1H-indazol-1-yl}benzoate]
- IC50: 222 nM

SMILES: CCCCC(NC(=O)c1ccc2c(-c3ccccc3Cl)nn(-c3ccc(F)cc3)c2c1)C(O)C(F)(F)F (stereo not drawn) [Example 73, 3-(2-chlorophenyl)-1-(4-fluorophenyl)-N-[1-(2,2,2-trifluoro-1-hydroxyethyl)pentyl]-1H-indazole-6-carboxamide]
- IC50: 534 nM

SMILES: CC1(NC(=O)c2ccc3c(-c4cccc(C5CC5)c4)nn(-c4ccc(F)cc4)c3c2)CCS(=O)(=O)C1 (single isomer, unassigned) [Example 145-A, 3-(3-cyclopropylphenyl)-1-(4-fluorophenyl)-N-(3-methyl-1,1-dioxidotetrahydrothiophen-3-yl)-1H-indazole-6-carboxamide]
- IC50: 2.1 nM

SMILES: CC1(NC(=O)c2ccc3c(-c4cc(C(N)=O)ccc4Cl)nn(-c4ccc(F)cc4)c3c2)CCS(=O)(=O)C1 (single isomer, unassigned) [Example 121-B, 3-(5-carbamoyl-2-chlorophenyl)-1-(4-fluorophenyl)-N-(3-methyl-1,1-dioxidotetrahydrothiophen-3-yl)-1H-indazole-6-carboxamide]
- IC50: 61 nM
